Here are results for 2 molecules from PMC8524856 (Biochemistry, 2021).

One data set deals with HS19.10. The note with it: 2.0 mM L-glutamate, 250 μM PLP, 50 mM HEPES/K+, pH 8.0, 25 °C; DHAP varied.
Data set [1] concerns N[C@@H](COP(=O)(O)O)C(=O)O. In words: purified protein. Conditions: 100 mM HEPES/K+, pH 8.0, 25 °C, 250 μM PLP.

`O=C(CO)COP(=O)(O)O` [DHAP]: in the data set with HS19.10, the Km (as a rule, the substrate concentration at which the rate is half of its maximum) amounted to 41 ± 2 µM.
“Cj1436 (Campylobacter jejuni subsp. jejuni NCTC 11168 = ATCC 700819)”: the kcat (commonly the number of substrate molecules converted per active site and unit of time at saturation) in data set [1] was found to be 0.21 ± 0.02 s⁻¹.
